How the values were obtained:
[1] = Serum stability in human serum (radio-TLC); type: in vitro ADME; conditions: 37 °C, 2, 24 and 48 h
Procedure: (§1) The serum stabilities of ^64Cu-cudotadipep and ^64Cu-cunotadipep were evaluated in human and mouse sera for 48 h. Briefly, 10 µL ^64Cu-cudotadipep (3.7 MBq) or […] (3.7 MBq) was mixed with 90 µL human or mouse serum and then incubated at 37 °C for 48 h. At each time point (2, 24, and 48 h), a 10 µL sample was removed, mixed with 100 µL distilled water, filtered through a 0.22 µm membrane filter, and then analyzed using radio-thin layer chromatography (TLC eluent condition: 1 M NH4OAc:MeOH = 1:1). The radio-TLCs were performed using a radio-TLC imaging scanner (BioScan, Washington, DC, USA) for radiodetection.

[2] = Radiation-absorbed dose calculation (OLINDA/EXM) from normal mouse biodistribution; parameters: species or system human
Procedure: The biodistribution results of normal BALB/c mice were used to evaluate the human radiation-absorbed dose. The internal absorbed doses of ^64Cu-cudotadipep and ^64Cu-cunotadipep were evaluated using the residence time and total amount of radioactivity in the target organ of the mice. The internal absorbed dose of the mice was converted to the human dose based on the Medical Internal Radiation Dose schema, using OLINDA/EXM version 1.1 software.

PC3-flu (PSMA−) cells = assay: Cell uptake in PC3-flu cells; type: cell-based, human; conditions: 1 × 10^6 cells, 3.7 MBq, 2 h, 37 °C
Procedure: (§2) PC3-PIP or PC3-flu cells (1 × 10^6) were mixed with 3.7 MBq (100 μCi) of ^64Cu-cudotadipep or ^64Cu-cunotadipep and incubated at 37 °C and 5% CO2 for 2 h. Following incubation, the cells were washed with PBS twice and collected via centrifugation (2000 rpm, 5 min). Radioactivity was measured using 2480 WIZARD2 gamma counter (Perkin Elmer, Waltham, MA, USA). Percent (%) uptake was calculated using the ratio between the radioactivity of the cells and treated radioactivity.

[3] = Serum stability in mouse serum (radio-TLC); type: in vitro ADME; conditions: 37 °C, 2, 24 and 48 h
Procedure: as §1

PC3-PIP tumor xenograft = assay: Biodistribution in PC3-PIP tumor-bearing nude mice; type: in vivo, mouse; conditions: tail vein
Procedure: All animal experiments followed the procedures approved by the Institutional Animal Care and Use Committee of Korea Institute of Radiological & Medical Sciences (approval No. KIRAMS2021-0044). Male BALB/c mice and athymic nude (Nu/Nu) BALB/c mice (weighing 20–25 g, 8 weeks old) were purchased from Nara Biotech (Seoul, Republic of Korea). PC3-PIP cells (1 × 10^7) were dispensed in 100 μL PBS, mixed with Matrigel, and subcutaneously implanted in the right thigh of male athymic nude (Nu/Nu) BALB/c mice. When the tumor reached 0.5–0.9 cm in diameter (2–3 weeks following implantation), biodistribution studies and PET imaging were performed.
(§3) Approximately 0.93 MBq ^64Cu-cudotadipep or ^64Cu-cunotadipep was injected via the tail vein into normal BALB/c mice or PC3-PIP tumor-bearing nude mice (n = 5/group). Normal and tumor-bearing mice were euthanized at 2, 6, 24, and 48 h following injection. Tumor and normal tissues were excised and weighed, and their radioactivity was measured using a gamma counter (2480 WIZARD2 gamma counter, Perkin Elmer, Waltham, MA, USA). The radioactivity measured in each tissue was expressed as a percentage of the injected dose per gram of tissue (%ID/g).

[4] = Biodistribution in normal BALB/c mice; type: in vivo, mouse; conditions: tail vein
Procedure: as §3

PC3-PIP (PSMA+) cells = assay: Cell uptake in PC3-PIP cells; type: cell-based, human; conditions: PC3-PIP cells, 1 × 10^6 cells, 3.7 MBq, 2 h, 37 °C
Procedure: as §2

serum stability [1]: > 98%
effective dose ([2]; ICRP tissue-weighting factors, OLINDA/EXM, extrapolated from mouse biodistribution): 3.00 × 10^−2 mSv/MBq
estimated radiation-absorbed dose, kidneys ([2]; adult males, extrapolated from normal BALB/c mouse biodistribution): 2.02 mGy/MBq
serum stability [3]: > 98%
Biodistribution, Blood (PC3-PIP tumor xenograft; 2 h): 9.81 ± 3.47 %ID/g
Biodistribution, Bone (PC3-PIP tumor xenograft; 2 h): 5.71 ± 1.47 %ID/g
Biodistribution, Fat (PC3-PIP tumor xenograft; 2 h): 5.72 ± 5.53 %ID/g
Biodistribution, Heart (PC3-PIP tumor xenograft; 2 h): 4.56 ± 1.25 %ID/g
Biodistribution, Intestine (PC3-PIP tumor xenograft; 2 h): 2.97 ± 1.15 %ID/g
Biodistribution, Kidney (PC3-PIP tumor xenograft; 2 h): 65.02 ± 22.42 %ID/g
Biodistribution, Liver (PC3-PIP tumor xenograft; 2 h): 8.33 ± 2.29 %ID/g
Biodistribution, Lung (PC3-PIP tumor xenograft; 2 h): 7.72 ± 2.30 %ID/g
Biodistribution, Muscle (PC3-PIP tumor xenograft; 2 h): 2.14 ± 0.59 %ID/g
Biodistribution, Spleen (PC3-PIP tumor xenograft; 2 h): 8.58 ± 3.99 %ID/g
Biodistribution, Stomach (PC3-PIP tumor xenograft; 2 h): 2.50 ± 1.05 %ID/g
Biodistribution, Tumor (PC3-PIP tumor xenograft; 2 h): 22.61 ± 14.10 %ID/g
Biodistribution, Blood (PC3-PIP tumor xenograft; 6 h): 4.01 ± 0.94 %ID/g
Biodistribution, Bone (PC3-PIP tumor xenograft; 6 h): 1.81 ± 1.50 %ID/g
Biodistribution, Fat (PC3-PIP tumor xenograft; 6 h): 4.14 ± 1.33 %ID/g
Biodistribution, Heart (PC3-PIP tumor xenograft; 6 h): 2.59 ± 0.38 %ID/g
Biodistribution, Intestine (PC3-PIP tumor xenograft; 6 h): 2.74 ± 0.80 %ID/g
Biodistribution, Kidney (PC3-PIP tumor xenograft; 6 h): 91.48 ± 12.98 %ID/g
Biodistribution, Liver (PC3-PIP tumor xenograft; 6 h): 6.96 ± 1.00 %ID/g
Biodistribution, Lung (PC3-PIP tumor xenograft; 6 h): 5.75 ± 2.72 %ID/g
Biodistribution, Muscle (PC3-PIP tumor xenograft; 6 h): 1.44 ± 0.56 %ID/g
Biodistribution, Spleen (PC3-PIP tumor xenograft; 6 h): 6.63 ± 0.12 %ID/g
Biodistribution, Stomach (PC3-PIP tumor xenograft; 6 h): 1.42 ± 0.53 %ID/g
Biodistribution, Tumor (PC3-PIP tumor xenograft; 6 h): 35.14 ± 9.68 %ID/g
Biodistribution, Blood (PC3-PIP tumor xenograft; 24 h): 1.23 ± 0.38 %ID/g
Biodistribution, Bone (PC3-PIP tumor xenograft; 24 h): 2.81 ± 1.71 %ID/g
Biodistribution, Fat (PC3-PIP tumor xenograft; 24 h): 0.74 ± 0.20 %ID/g
Biodistribution, Heart (PC3-PIP tumor xenograft; 24 h): 1.64 ± 0.12 %ID/g
Biodistribution, Intestine (PC3-PIP tumor xenograft; 24 h): 2.38 ± 0.42 %ID/g
Biodistribution, Kidney (PC3-PIP tumor xenograft; 24 h): 50.29 ± 7.06 %ID/g
Biodistribution, Liver (PC3-PIP tumor xenograft; 24 h): 6.99 ± 0.45 %ID/g
Biodistribution, Lung (PC3-PIP tumor xenograft; 24 h): 4.58 ± 1.08 %ID/g
Biodistribution, Muscle (PC3-PIP tumor xenograft; 24 h): 0.41 ± 0.06 %ID/g
Biodistribution, Spleen (PC3-PIP tumor xenograft; 24 h): 2.79 ± 0.87 %ID/g
Biodistribution, Stomach (PC3-PIP tumor xenograft; 24 h): 1.27 ± 0.08 %ID/g
Biodistribution, Tumor (PC3-PIP tumor xenograft; 24 h): 37.13 ± 3.65 %ID/g
Biodistribution, Blood (PC3-PIP tumor xenograft; 48 h): 1.08 ± 0.27 %ID/g
Biodistribution, Bone (PC3-PIP tumor xenograft; 48 h): 3.42 ± 0.40 %ID/g
Biodistribution, Fat (PC3-PIP tumor xenograft; 48 h): 2.36 ± 1.25 %ID/g
Biodistribution, Heart (PC3-PIP tumor xenograft; 48 h): 1.91 ± 0.57 %ID/g
Biodistribution, Intestine (PC3-PIP tumor xenograft; 48 h): 1.54 ± 0.16 %ID/g
Biodistribution, Kidney (PC3-PIP tumor xenograft; 48 h): 52.07 ± 18.32 %ID/g
Biodistribution, Liver (PC3-PIP tumor xenograft; 48 h): 5.74 ± 1.83 %ID/g
Biodistribution, Lung (PC3-PIP tumor xenograft; 48 h): 3.64 ± 1.14 %ID/g
Biodistribution, Muscle (PC3-PIP tumor xenograft; 48 h): 0.80 ± 0.22 %ID/g
Biodistribution, Spleen (PC3-PIP tumor xenograft; 48 h): 3.56 ± 1.14 %ID/g
Biodistribution, Stomach (PC3-PIP tumor xenograft; 48 h): 1.14 ± 0.31 %ID/g
Biodistribution, Tumor (PC3-PIP tumor xenograft; 48 h): 28.84 ± 13.04 %ID/g
Biodistribution, Blood ([4]; 2 h): 9.51 ± 7.25 %ID/g
Biodistribution, Bone ([4]; 2 h): 1.07 ± 0.24 %ID/g
Biodistribution, Brain ([4]; 2 h): 0.26 ± 0.12 %ID/g
Biodistribution, Fat ([4]; 2 h): 1.20 ± 0.35 %ID/g
Biodistribution, Heart ([4]; 2 h): 3.17 ± 1.12 %ID/g
Biodistribution, Intestine ([4]; 2 h): 2.21 ± 0.35 %ID/g
Biodistribution, Kidney ([4]; 2 h): 53.28 ± 19.92 %ID/g
Biodistribution, Liver ([4]; 2 h): 4.38 ± 1.51 %ID/g
Biodistribution, Lung ([4]; 2 h): 5.48 ± 2.24 %ID/g
Biodistribution, Muscle ([4]; 2 h): 1.30 ± 0.42 %ID/g
Biodistribution, Spleen ([4]; 2 h): 5.07 ± 1.38 %ID/g
Biodistribution, Stomach ([4]; 2 h): 1.21 ± 0.49 %ID/g
Biodistribution, Blood ([4]; 6 h): 5.62 ± 0.95 %ID/g
Biodistribution, Bone ([4]; 6 h): 0.89 ± 0.22 %ID/g
Biodistribution, Brain ([4]; 6 h): 0.19 ± 0.02 %ID/g
Biodistribution, Fat ([4]; 6 h): 0.99 ± 0.27 %ID/g
Biodistribution, Heart ([4]; 6 h): 2.25 ± 0.33 %ID/g
Biodistribution, Intestine ([4]; 6 h): 1.69 ± 0.55 %ID/g
Biodistribution, Kidney ([4]; 6 h): 58.85 ± 6.00 %ID/g
Biodistribution, Liver ([4]; 6 h): 4.11 ± 0.53 %ID/g
Biodistribution, Lung ([4]; 6 h): 4.76 ± 0.51 %ID/g
Biodistribution, Muscle ([4]; 6 h): 1.05 ± 0.14 %ID/g
Biodistribution, Spleen ([4]; 6 h): 5.05 ± 1.56 %ID/g
Biodistribution, Stomach ([4]; 6 h): 0.92 ± 0.45 %ID/g
Biodistribution, Blood ([4]; 24 h): 1.39 ± 0.15 %ID/g
Biodistribution, Bone ([4]; 24 h): 0.60 ± 0.03 %ID/g
Biodistribution, Brain ([4]; 24 h): 0.13 ± 0.01 %ID/g
Biodistribution, Fat ([4]; 24 h): 0.63 ± 0.26 %ID/g
Biodistribution, Heart ([4]; 24 h): 1.22 ± 0.06 %ID/g
Biodistribution, Intestine ([4]; 24 h): 1.16 ± 0.24 %ID/g
Biodistribution, Kidney ([4]; 24 h): 37.40 ± 1.84 %ID/g
Biodistribution, Liver ([4]; 24 h): 5.32 ± 0.12 %ID/g
Biodistribution, Lung ([4]; 24 h): 2.53 ± 0.20 %ID/g
Biodistribution, Muscle ([4]; 24 h): 0.42 ± 0.05 %ID/g
Biodistribution, Spleen ([4]; 24 h): 2.56 ± 0.33 %ID/g
Biodistribution, Stomach ([4]; 24 h): 0.67 ± 0.22 %ID/g
Biodistribution, Blood ([4]; 48 h): 0.45 ± 0.15 %ID/g
Biodistribution, Bone ([4]; 48 h): 0.83 ± 0.10 %ID/g
Biodistribution, Brain ([4]; 48 h): 0.18 ± 0.01 %ID/g
Biodistribution, Fat ([4]; 48 h): 0.40 ± 0.10 %ID/g
Biodistribution, Heart ([4]; 48 h): 0.95 ± 0.07 %ID/g
Biodistribution, Intestine ([4]; 48 h): 0.56 ± 0.08 %ID/g
Biodistribution, Kidney ([4]; 48 h): 9.55 ± 2.33 %ID/g
Biodistribution, Liver ([4]; 48 h): 3.86 ± 0.31 %ID/g
Biodistribution, Lung ([4]; 48 h): 1.32 ± 0.13 %ID/g
Biodistribution, Muscle ([4]; 48 h): 0.45 ± 0.04 %ID/g
Biodistribution, Spleen ([4]; 48 h): 1.19 ± 0.11 %ID/g
Biodistribution, Stomach ([4]; 48 h): 0.44 ± 0.11 %ID/g
SMILES: O=C([O-])CN1CCN(CC(=O)[O-])CCN(CC(=O)N[C@@H](CCCCNC(=O)CCCc2ccc(I)cc2)C(=O)NCCOCCOCC(=O)N(CCCC[C@H](NC(=O)N[C@@H](CCC(=O)O)C(=O)O)C(=O)O)CC(=O)O)CC1.[64Cu+2] [^64Cu-cunotadipep]
cellular uptake (PC3-flu (PSMA−) cells): 1.52 ± 0.03%
cellular uptake (PC3-PIP (PSMA+) cells): 6.02 ± 0.05%

— PMC10453766, “Comparison of the Effects of DOTA and NOTA Chelators on ^64Cu-Cudotadipep and ^64Cu-Cunotadipep for Prostate Cancer” (Diagnostics, 2023)
